Consider 33 compounds from patent US10689354B2, “Aminoazole derivative” (Teijin Pharma Limited, priority 2015, dated 2020).

This test concerns the target T1, androgen receptor (AR-LBD) (Rattus norvegicus, UniProt P15207).
T1 construct: 5 μL of 2×AR-LBD/Fluoromone AL Red Complex contained in the kit; purchased Invitrogen
T1 sequence (P15207 651-882 limits assumed): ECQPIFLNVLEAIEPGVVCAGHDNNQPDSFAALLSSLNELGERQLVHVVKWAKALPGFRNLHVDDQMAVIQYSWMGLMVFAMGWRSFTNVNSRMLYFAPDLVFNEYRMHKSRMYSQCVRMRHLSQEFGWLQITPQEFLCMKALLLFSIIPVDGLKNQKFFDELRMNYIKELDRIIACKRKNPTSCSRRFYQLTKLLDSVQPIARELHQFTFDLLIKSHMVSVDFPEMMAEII
Kind of test: Evaluation of androgen receptor affinity (PolarScreen Androgen Receptor Competitor Assay Kit, Red; fluorescence polarization). The conditions noted are these: 22° C. for 5 hours, relative to binding rate of 1 μM DHT, read-out: AR affinity (pEC50) (converted). How it is done:
Evaluation of an Androgen Receptor Affinity
To examine the interaction of a compound with an androgen receptor, evaluation was carried out in accordance with the following procedure using PolarScreen™ Androgen Receptor Competitor Assay Kit, Red (Invitrogen). To 2 wells each of a 384 well black plate was added 5 μL of the compound solution. To each well was added 5 μL of 2×AR-LBD/Fluoromone AL Red Complex contained in the kit and the samples were reacted at 22° C. for 5 hours. After 5 hours of the reaction, fluorescence polarization was measured and the affinity was evaluated. The affinity of the compound was determined by comparing to the binding rate of 1 μM of dihydrotestosterone (DHT), and quantified the logarithm value (pEC50) of reciprocal value of the effective concentration of the compound which is equal to 50% of the binding rate by applying a 4 parameter goodness-of-fit calculation.
A general note: In fluorescence polarisation assays a small probe gives low polarisation when free and higher when bound to something large.

Some results are limits rather than exact numbers.

As for `Cc1sc(N(Cc2ccccc2)c2ccccc2F)nc1C(=O)NS(C)(=O)=O` [Compound 30, 2-(N-benzyl-2-fluoro-anilino)-5-methyl-N-methylsulfonyl-thiazole-4-carboxamide], the EC50 was above 2000 nM.
The figure for `Cc1sc(N(Cc2ccccc2)c2cccc(Cl)c2)nc1C(=O)NS(C)(=O)=O` [Compound 32, 2-(N-benzyl-3-chloro-anilino)-5-methyl-N-methylsulfonyl-thiazole-4-carboxamide] is above 2000 nM; for `Cc1sc(N(Cc2ccccc2)c2ccccc2Cl)nc1C(=O)NS(C)(=O)=O` [Compound 33, 2-(N-benzyl-2-chloro-anilino)-5-methyl-N-methylsulfonyl-thiazole-4-carboxamide] it is above 2000 nM.
On to `Cc1sc(N(Cc2ccccc2)c2cccc(OC(F)(F)F)c2)nc1C(=O)NS(C)(=O)=O` [Compound 35, 2-[N-benzyl-3-(trifluoromethoxy)anilino]-5-methyl-N-methylsulfonyl-thiazole-4-carboxamide], for which the EC50 was above 2000 nM.
In the case of `Cc1sc(N(Cc2ccccc2)c2ccc(F)cc2F)nc1C(=O)NS(C)(=O)=O` [Compound 36, 2-(N-benzyl-2,4-difluoro-anilino)-5-methyl-N-methylsulfonyl-thiazole-4-carboxamide], the EC50 was 1260 nM.
For `Cc1sc(N(Cc2ccccc2)c2ccc(OCc3ccccc3)cc2)nc1C(=O)NS(C)(=O)=O` [Compound 38, 2-(N-benzyl-4-benzyloxy-anilino)-5-methyl-N-methylsulfonyl-thiazole-4-carboxamide], the EC50 was above 2000 nM.
As for `Cc1sc(N(Cc2ccccn2)c2ccc(C#N)cc2)nc1C(=O)NS(C)(=O)=O` [Compound 42, 2-[4-cyano-N-(2-pyridylmethyl)anilino]-5-methyl-N-methylsulfonyl-thiazole-4-carboxamide], the EC50 is above 2000 nM.
For `Cc1sc(N(Cc2cccnc2)c2ccc(C#N)cc2)nc1C(=O)NS(C)(=O)=O` [Compound 43, 2-[4-cyano-N-(3-pyridylmethyl)anilino]-5-methyl-N-methylsulfonyl-thiazole-4-carboxamide], the EC50 was above 2000 nM.
As for `Cc1sc(N(Cc2ccncc2)c2ccc(C#N)cc2)nc1C(=O)NS(C)(=O)=O` [Compound 44, 2-[4-cyano-N-(4-pyridylmethyl)anilino]-5-methyl-N-methylsulfonyl-thiazole-4-carboxamide], the EC50 is above 2000 nM.
In the case of `COc1ccccc1N(Cc1ccccc1)c1nc(C(=O)NS(C)(=O)=O)c(C)s1` [Compound 47, 2-(N-benzyl-2-methoxy-anilino)-5-methyl-N-methylsulfonyl-thiazole-4-carboxamide], the EC50 was above 2000 nM.
As for `Cc1sc(N(Cc2ccccc2)c2ccc(F)c(F)c2)nc1C(=O)NS(C)(=O)=O` [Compound 48, 2-(N-benzyl-3,4-difluoro-anilino)-5-methyl-N-methylsulfonyl-thiazole-4-carboxamide], the EC50 was 398 nM.
Regarding `Cc1sc(N(Cc2ccccc2)c2cccnc2)nc1C(=O)NS(C)(=O)=O` [Compound 49, 2-[benzyl(3-pyridyl)amino]-5-methyl-N-methylsulfonyl-thiazole-4-carboxamide], the EC50 was above 2000 nM.
The figure for `Cc1sc(N(Cc2ccccc2)c2cccc3cccnc23)nc1C(=O)NS(C)(=O)=O` [Compound 53, 2-[benzyl(8-quinolyl)amino]-5-methyl-N-methylsulfonyl-thiazole-4-carboxamide] is above 2000 nM.
The figure for `Cc1sc(N(Cc2ccccc2)c2cnccn2)nc1C(=O)NS(C)(=O)=O` [Compound 55, 2-[benzyl(pyrazin-2-yl)amino]-5-methyl-N-methylsulfonyl-thiazole-4-carboxamide] is above 2000 nM; for `Cc1sc(N(c2ccc(C#N)cc2)C(C)c2ccccc2)nc1C(=O)NS(C)(=O)=O` (stereo not drawn) [Compound 58, 2-[4-cyano-N-(1-phenylethyl)anilino]-5-methyl-N-methylsulfonyl-thiazole-4-carboxamide] it is above 2000 nM; for `Cc1sc(N(C)c2ccc(C#N)cc2)nc1C(=O)NS(C)(=O)=O` [Compound 60, 2-(4-cyano-N-methyl-anilino)-5-methyl-N-methylsulfonyl-thiazole-4-carboxamide] it is above 2000 nM.
The figure for `Cc1sc(N(CCc2ccc(O)cc2)c2ccc(C#N)cc2)nc1C(=O)NS(C)(=O)=O` [Compound 62, 2-[4-cyano-N-[2-(4-hydroxyphenyl)ethyl]anilino]-5-methyl-N-methylsulfonyl-thiazole-4-carboxamide] is 1580 nM; for `Cc1sc(N(CC(=O)C(C)(C)C)c2ccc(C#N)cc2)nc1C(=O)NS(C)(=O)=O` [Compound 63, 2-(4-cyano-N-(3,3-dimethyl-2-oxo-butyl)anilino)-5-methyl-N-methylsulfonyl-thiazole-4-carboxamide] it is above 2000 nM.
`Cc1sc(N(CC2CC2)c2ccc(C#N)cc2)nc1C(=O)NS(C)(=O)=O` [Compound 67, 2-[4-cyano-N-(cyclopropylmethyl)anilino]-5-methyl-N-methylsulfonyl-thiazole-4-carboxamide]: the EC50 was above 2000 nM.
Consider `Cc1sc(N(Cc2ccccc2)c2cccc(-n3cncn3)c2)nc1C(=O)NS(C)(=O)=O` [Compound 71, 2-[N-benzyl-3-(1,2,4-triazol-1-yl)anilino]-5-methyl-N-methylsulfonyl-thiazole-4-carboxamide], for which the EC50 is above 2000 nM.
The figure for `Cc1sc(N(CC(=O)N2CCCCC2)c2ccc(C#N)cc2)nc1C(=O)NS(C)(=O)=O` [Compound 72, 2-(4-cyano-N-[2-oxo-2-(1-piperidyl)ethyl]anilino)-5-methyl-N-methylsulfonyl-thiazole-4-carboxamide] is above 2000 nM.
Regarding `Cc1sc(N(CC(C)C)c2ccc(C#N)cc2)nc1C(=O)NS(C)(=O)=O` [Compound 73, 2-(4-cyano-N-isobutyl-anilino)-5-methyl-N-methylsulfonyl-thiazole-4-carboxamide], the EC50 is above 2000 nM.
Next, `Cc1sc(N(CC(C)(C)C)c2ccc(C#N)cc2)nc1C(=O)NS(C)(=O)=O` [Compound 74, 2-[4-cyano-N-(2,2-dimethylpropyl)anilino]-5-methyl-N-methylsulfonyl-thiazole-4-carboxamide]: above 2000 nM; `CCC(c1ccccc1)N(c1ccc(C#N)cc1)c1nc(C(=O)NS(C)(=O)=O)c(C)s1` (stereo not drawn) [Compound 84, 2-[4-cyano-N-(1-phenylpropyl)anilino]-5-methyl-N-methylsulfonyl-thiazole-4-carboxamide]: above 2000 nM; `Cc1sc(N(Cc2cccc3nonc23)c2ccc(C#N)cc2)nc1C(=O)NS(C)(=O)=O` [Compound 92, 2-[N-(2,1,3-benzoxadiazol-4-ylmethyl)-4-cyano-anilino]-5-methyl-N-methylsulfonyl-thiazole-4-carboxamide]: 158 nM.
On to `Cc1sc(N(Cc2ccccc2C(F)F)c2ccc(C#N)cc2)nc1C(=O)NS(C)(=O)=O` [Compound 93, 2-[4-cyano-N-[[2-(difluoromethyl)phenyl]methyl]anilino]-5-methyl-N-methylsulfonyl-thiazole-4-carboxamide], for which the EC50 is 631 nM.
Next, `CC(=O)c1cccc(CN(c2ccc(C#N)cc2)c2nc(C(=O)NS(C)(=O)=O)c(C)s2)c1` [Compound 95, 2-[N-[(3-acetylphenyl)methyl]-4-cyano-anilino]-5-methyl-N-methylsulfonyl-thiazole-4-carboxamide]: 251 nM; `Cc1cc(F)cc(CN(c2ccc(C#N)cc2)c2nc(C(=O)NS(C)(=O)=O)c(C)s2)c1` [Compound 98, 2-[4-cyano-N-[(3-fluoro-5-methyl-phenyl)methyl]anilino]-5-methyl-N-methylsulfonyl-thiazole-4-carboxamide]: 39.8 nM.
The figure for `Cc1sc(N(Cc2ccccc2OC(F)(F)F)c2ccc(C#N)cc2)nc1C(=O)NS(C)(=O)=O` [Compound 101, 2-[4-cyano-N-[[2-(trifluoromethoxy)phenyl]methyl]anilino]-5-methyl-N-methylsulfonyl-thiazole-4-carboxamide] is 631 nM.
`Cc1sc(N(CC2CCCOC2)c2ccc(C#N)cc2)nc1C(=O)NS(C)(=O)=O` (stereo not drawn) [Compound 120, 2-[4-cyano-N-(tetrahydropyran-3-ylmethyl)anilino]-5-methyl-N-methylsulfonyl-thiazole-4-carboxamide]: the EC50 is above 2000 nM.
Take `Cc1sc(N(CCc2ccccn2)c2ccc(C#N)cc2)nc1C(=O)NS(C)(=O)=O` [Compound 130, 2-[4-cyano-N-[2-(2-pyridyl)ethyl]anilino]-5-methyl-N-methylsulfonyl-thiazole-4-carboxamide]: the EC50 was above 2000 nM.
With `Cc1sc(N(CCc2cccnc2)c2ccc(C#N)cc2)nc1C(=O)NS(C)(=O)=O` [Compound 134, 2-[4-cyano-N-[2-(3-pyridyl)ethyl]anilino]-5-methyl-N-methylsulfonyl-thiazole-4-carboxamide], the EC50 was above 2000 nM.
For `Cc1nc(CCN(c2ccc(C#N)cc2)c2nc(C(=O)NS(C)(=O)=O)c(C)s2)cs1` [Compound 135, 2-[4-cyano-N-[2-(2-methylthiazol-4-yl)ethyl]anilino]-5-methyl-N-methylsulfonyl-thiazole-4-carboxamide], the EC50 was above 2000 nM.
